From a compilation of properties of binary mixtures (doi:10.1016/j.molliq.2020.112507)

Test: xn = mol fraction of the nth substance listed
Conditions: 100 kPa

CCCC#N + CCCC[n+]1ccn(C)c1.COS(=O)(=O)[O-]
speed of sound [m/s]
Conditions | x2 = 0 | x2 = 0.1117 | x2 = 0.2128 | x2 = 0.3714 | x2 = 0.4263 | x2 = 0.5115 | x2 = 0.6345 | x2 = 0.7161 | x2 = 0.8065 | x2 = 0.9072
298.15 K | 1279.9 | – | 1395.9 | 1468.7 | 1490.6 | 1521.4 | 1559.7 | – | 1605.3 | 1630.9
303.15 K | 1260.6 | 1323.5 | 1378.9 | 1452.9 | 1475.5 | – | 1545.8 | 1568.8 | – | 1618.2
308.15 K | 1241 | 1305.2 | 1361.8 | 1437.1 | 1460.3 | – | 1531.9 | – | 1579.1 | 1605.5
313.15 K | 1221.2 | 1286.9 | 1344.7 | 1421.4 | – | 1477.3 | – | 1541.4 | 1566 | 1592.8

CCCC[n+]1ccn(C)c1.COS(=O)(=O)[O-] + CCCC#N
x1 = 1
Conditions | speed of sound [m/s]
298.15 K | 1654.9
308.15 K | 1630.2
313.15 K | 1618.2
